Where two headings read alike, the source gives them in different places. Positions of bridges follow the written chain, without caps; N, C: chain ends. Residues, ends and D or L forms follow the SMILES beside them.
Tests used:
hNav1.7 = target: T1, hNav1.7 (Homo sapiens, UniProt Q15858); experiment: cell-based; details: whole-cell patch clamp, HEK293T, mean ± SEM, this study, read-out: IC50 on hNav1.7
T1 construct: expressed in transfected cells; host or cells: HEK293T

rKv4.2 = target: T2, rKv4.2 (Rattus norvegicus, UniProt Q63881); experiment: cell-based; details: for IC50: whole-cell patch clamp, HEK293T, mean ± SEM, n = 3-8, read-out: IC50 on rKv4.2 WT
T2 construct: expressed in transfected cells; host or cells: HEK293T
T2 sequence (Q63881 1-630): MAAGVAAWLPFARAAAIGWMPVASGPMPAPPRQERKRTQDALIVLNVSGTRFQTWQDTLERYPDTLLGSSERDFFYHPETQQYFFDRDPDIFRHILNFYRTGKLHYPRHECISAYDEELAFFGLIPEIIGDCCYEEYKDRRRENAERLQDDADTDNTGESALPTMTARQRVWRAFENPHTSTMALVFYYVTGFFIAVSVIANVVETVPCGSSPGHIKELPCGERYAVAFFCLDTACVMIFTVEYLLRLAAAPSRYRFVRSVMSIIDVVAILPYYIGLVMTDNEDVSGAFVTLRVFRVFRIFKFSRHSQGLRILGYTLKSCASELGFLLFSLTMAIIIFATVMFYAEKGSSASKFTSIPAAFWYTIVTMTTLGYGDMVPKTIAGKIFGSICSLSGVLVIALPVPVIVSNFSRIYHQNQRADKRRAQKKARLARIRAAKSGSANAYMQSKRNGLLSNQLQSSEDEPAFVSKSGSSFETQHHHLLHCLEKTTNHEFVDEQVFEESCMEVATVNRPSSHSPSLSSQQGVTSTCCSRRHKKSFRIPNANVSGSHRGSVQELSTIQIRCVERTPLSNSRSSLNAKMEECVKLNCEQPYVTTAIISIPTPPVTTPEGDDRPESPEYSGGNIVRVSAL

T1 sequence (O60939 30-215): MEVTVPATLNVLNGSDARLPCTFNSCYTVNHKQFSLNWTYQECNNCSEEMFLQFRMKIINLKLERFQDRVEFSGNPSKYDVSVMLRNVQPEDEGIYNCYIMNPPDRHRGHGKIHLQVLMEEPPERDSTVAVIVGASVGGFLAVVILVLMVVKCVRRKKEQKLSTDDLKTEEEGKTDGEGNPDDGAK
T1 sequence (Q15858 other isoform, or with tags, fused parts or gaps): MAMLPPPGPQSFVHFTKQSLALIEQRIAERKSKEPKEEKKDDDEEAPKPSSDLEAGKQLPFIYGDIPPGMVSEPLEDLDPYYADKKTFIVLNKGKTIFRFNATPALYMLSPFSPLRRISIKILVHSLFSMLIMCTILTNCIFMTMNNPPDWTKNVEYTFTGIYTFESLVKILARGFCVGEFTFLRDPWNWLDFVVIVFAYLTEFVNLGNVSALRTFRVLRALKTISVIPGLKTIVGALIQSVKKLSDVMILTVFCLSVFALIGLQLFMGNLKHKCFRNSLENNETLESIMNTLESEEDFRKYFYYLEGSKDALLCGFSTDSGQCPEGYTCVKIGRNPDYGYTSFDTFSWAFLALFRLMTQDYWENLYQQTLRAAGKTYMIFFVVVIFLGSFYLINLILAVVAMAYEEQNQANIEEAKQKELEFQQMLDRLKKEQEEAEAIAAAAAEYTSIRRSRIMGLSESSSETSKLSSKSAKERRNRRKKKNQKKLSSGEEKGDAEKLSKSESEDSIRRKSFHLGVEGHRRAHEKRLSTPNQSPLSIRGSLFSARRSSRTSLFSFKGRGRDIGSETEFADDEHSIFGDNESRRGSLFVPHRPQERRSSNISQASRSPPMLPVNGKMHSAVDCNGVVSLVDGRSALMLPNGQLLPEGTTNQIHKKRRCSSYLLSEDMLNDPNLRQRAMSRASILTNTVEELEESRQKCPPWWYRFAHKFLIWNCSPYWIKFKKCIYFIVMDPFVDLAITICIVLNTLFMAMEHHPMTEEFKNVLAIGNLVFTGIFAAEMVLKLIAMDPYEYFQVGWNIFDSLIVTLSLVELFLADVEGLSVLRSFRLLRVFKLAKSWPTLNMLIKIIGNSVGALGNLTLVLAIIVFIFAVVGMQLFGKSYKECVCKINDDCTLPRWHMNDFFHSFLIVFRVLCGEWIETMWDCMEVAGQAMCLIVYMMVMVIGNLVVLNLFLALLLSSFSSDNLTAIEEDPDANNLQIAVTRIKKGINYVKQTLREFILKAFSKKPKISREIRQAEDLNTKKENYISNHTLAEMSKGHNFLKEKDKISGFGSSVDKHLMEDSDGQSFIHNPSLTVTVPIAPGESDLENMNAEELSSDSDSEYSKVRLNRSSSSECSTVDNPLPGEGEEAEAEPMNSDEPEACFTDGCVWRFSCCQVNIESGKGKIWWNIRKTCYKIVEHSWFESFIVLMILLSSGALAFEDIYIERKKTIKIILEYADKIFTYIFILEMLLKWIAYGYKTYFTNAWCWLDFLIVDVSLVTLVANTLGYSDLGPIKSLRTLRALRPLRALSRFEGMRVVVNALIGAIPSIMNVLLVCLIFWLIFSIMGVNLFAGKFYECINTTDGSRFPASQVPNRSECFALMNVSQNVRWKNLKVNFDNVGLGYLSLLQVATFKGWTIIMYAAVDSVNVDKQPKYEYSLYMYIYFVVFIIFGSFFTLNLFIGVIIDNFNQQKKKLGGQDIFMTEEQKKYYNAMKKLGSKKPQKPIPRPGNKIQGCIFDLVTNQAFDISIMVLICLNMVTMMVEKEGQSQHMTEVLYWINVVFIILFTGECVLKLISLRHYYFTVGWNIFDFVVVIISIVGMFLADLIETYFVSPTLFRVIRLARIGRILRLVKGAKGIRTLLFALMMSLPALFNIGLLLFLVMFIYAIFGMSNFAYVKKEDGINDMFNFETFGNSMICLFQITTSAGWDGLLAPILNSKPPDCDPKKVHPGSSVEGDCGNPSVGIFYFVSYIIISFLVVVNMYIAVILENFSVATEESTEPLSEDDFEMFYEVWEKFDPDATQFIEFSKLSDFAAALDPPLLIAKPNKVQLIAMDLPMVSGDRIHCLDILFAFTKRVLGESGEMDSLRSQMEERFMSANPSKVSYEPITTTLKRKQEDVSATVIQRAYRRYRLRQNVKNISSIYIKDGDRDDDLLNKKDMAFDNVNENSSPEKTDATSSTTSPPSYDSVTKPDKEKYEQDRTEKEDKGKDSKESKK
T1 sequence (Q07699 19-218, further chain): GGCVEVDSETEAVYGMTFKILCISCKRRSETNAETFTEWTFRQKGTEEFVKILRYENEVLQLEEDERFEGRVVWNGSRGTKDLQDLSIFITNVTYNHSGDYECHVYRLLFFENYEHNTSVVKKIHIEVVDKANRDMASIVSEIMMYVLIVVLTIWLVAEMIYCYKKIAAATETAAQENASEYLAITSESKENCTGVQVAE

Compound: CC(C)C[C@H](NC(=O)[C@H](Cc1ccc(O)cc1)NC(=O)[C@@H](NC(=O)[C@H](CCCCN)NC(=O)[C@@H]1CSSC[C@@H]2NC(=O)[C@H](CCC(=O)O)NC(=O)[C@H](CC(N)=O)NC(=O)[C@H](CCCCN)NC(=O)CNC(=O)[C@@H]3CCCN3C(=O)[C@H]([C@@H](C)O)NC(=O)[C@@H]3CSSC[C@H](NC(=O)[C@H](C)NC(=O)[C@H](Cc4ccc(O)cc4)NC(=O)[C@H](CC(N)=O)NC(=O)[C@@H]4CCCN4C(=O)[C@H](CSSC[C@H](NC(=O)CN)C(=O)N[C@@H](CCCCN)C(=O)NCC(=O)N[C@@H](Cc4ccccc4)C(=O)NCC(=O)N[C@@H](CC(=O)O)C(=O)N[C@@H](CO)C(=O)N3)NC2=O)C(=O)N[C@@H](CO)C(=O)N[C@@H](CO)C(=O)N[C@@H](C)C(=O)N[C@@H](Cc2c[nH]cn2)C(=O)N[C@@H](CCCCN)C(=O)N[C@@H](Cc2c[nH]c3ccccc23)C(=O)N1)C(C)C)C(N)=O [K25A] (H-GCKGFGDSCTPGKNECCPNYACSSAHKWCKVYL-NH2; disulfide 2-17, 9-22, 16-29)
- IC50 (hNav1.7; SEM): 2000 ± 332 nM
- IC50 (rKv4.2): > 20000 nM

Compound: CC(C)[C@H](NC(=O)[C@H](CCCCN)NC(=O)[C@@H]1CSSC[C@@H]2NC(=O)[C@H](CCC(=O)O)NC(=O)[C@H](CC(N)=O)NC(=O)[C@H](CCCCN)NC(=O)CNC(=O)[C@@H]3CCCN3C(=O)[C@H]([C@@H](C)O)NC(=O)[C@@H]3CSSC[C@H](NC(=O)[C@H](C)NC(=O)[C@H](Cc4ccc(O)cc4)NC(=O)[C@H](CC(N)=O)NC(=O)[C@@H]4CCCN4C(=O)[C@H](CSSC[C@H](NC(=O)CN)C(=O)N[C@@H](CCCCN)C(=O)NCC(=O)N[C@@H](Cc4ccccc4)C(=O)NCC(=O)N[C@@H](CC(=O)O)C(=O)N[C@@H](CO)C(=O)N3)NC2=O)C(=O)N[C@@H](CO)C(=O)N[C@@H](CO)C(=O)N[C@@H](CCCCN)C(=O)N[C@@H](Cc2c[nH]cn2)C(=O)N[C@@H](CCCCN)C(=O)N[C@@H](Cc2c[nH]c3ccccc23)C(=O)N1)C(=O)N[C@@H](Cc1ccc(O)cc1)C(=O)N[C@@H](CCCCN)C(N)=O [L33K] (H-GCKGFGDSCTPGKNECCPNYACSSKHKWCKVYK-NH2; disulfide 2-17, 9-22, 16-29)
- IC50 (hNav1.7): > 10000 nM
- IC50 (rKv4.2; SEM): 20000 ± 4000 nM

Compound: CC(C)C[C@H](NC(=O)[C@H](Cc1ccc(O)cc1)NC(=O)[C@@H](NC(=O)[C@H](CCCCN)NC(=O)[C@@H]1CSSC[C@@H]2NC(=O)[C@H](CCC(=O)O)NC(=O)[C@H](CC(N)=O)NC(=O)[C@H](CCCCN)NC(=O)CNC(=O)[C@@H]3CCCN3C(=O)[C@H]([C@@H](C)O)NC(=O)[C@@H]3CSSC[C@H](NC(=O)[C@H](C)NC(=O)[C@H](Cc4ccc(O)cc4)NC(=O)[C@H](C)NC(=O)[C@@H]4CCCN4C(=O)[C@H](CSSC[C@H](NC(=O)CN)C(=O)N[C@@H](CCCCN)C(=O)NCC(=O)N[C@@H](Cc4ccccc4)C(=O)NCC(=O)N[C@@H](CC(=O)O)C(=O)N[C@@H](CO)C(=O)N3)NC2=O)C(=O)N[C@@H](CO)C(=O)N[C@@H](CO)C(=O)N[C@@H](CCCCN)C(=O)N[C@@H](Cc2c[nH]cn2)C(=O)N[C@@H](CCCCN)C(=O)N[C@@H](Cc2c[nH]c3ccccc23)C(=O)N1)C(C)C)C(N)=O [N19A] (H-GCKGFGDSCTPGKNECCPAYACSSKHKWCKVYL-NH2; disulfide 2-17, 9-22, 16-29)
- IC50 (hNav1.7; SEM): 116 ± 9 nM
- IC50 (rKv4.2; SEM): 64 ± 9 nM

Compound: CC(C)C[C@H](NC(=O)[C@H](Cc1ccc(O)cc1)NC(=O)[C@@H](NC(=O)[C@H](CCCCN)NC(=O)[C@@H]1CSSC[C@@H]2NC(=O)[C@H](CCC(=O)O)NC(=O)[C@H](CC(N)=O)NC(=O)[C@H](CCCCN)NC(=O)CNC(=O)[C@@H]3CCCN3C(=O)[C@H]([C@@H](C)O)NC(=O)[C@@H]3CSSC[C@H](NC(=O)[C@H](C)NC(=O)[C@H](Cc4ccc(O)cc4)NC(=O)[C@H](CC(C)C)NC(=O)[C@@H]4CCCN4C(=O)[C@H](CSSC[C@H](NC(=O)CN)C(=O)N[C@@H](CCCCN)C(=O)NCC(=O)N[C@@H](Cc4ccccc4)C(=O)NCC(=O)N[C@@H](CC(=O)O)C(=O)N[C@@H](CO)C(=O)N3)NC2=O)C(=O)N[C@@H](CO)C(=O)N[C@@H](CO)C(=O)N[C@@H](CCCCN)C(=O)N[C@@H](Cc2c[nH]cn2)C(=O)N[C@@H](CCCCN)C(=O)N[C@@H](Cc2c[nH]c3ccccc23)C(=O)N1)C(C)C)C(N)=O [N19L] (H-GCKGFGDSCTPGKNECCPLYACSSKHKWCKVYL-NH2; disulfide 2-17, 9-22, 16-29)
- IC50 (rKv4.2; SEM): 42 ± 4 nM

Compound: CC(C)C[C@H](NC(=O)[C@H](Cc1ccc(O)cc1)NC(=O)[C@@H](NC(=O)[C@H](CCCCN)NC(=O)[C@@H]1CSSC[C@@H]2NC(=O)[C@H](CCC(=O)O)NC(=O)[C@H](CC(N)=O)NC(=O)[C@H](CCCCN)NC(=O)CNC(=O)[C@@H]3CCCN3C(=O)[C@H]([C@@H](C)O)NC(=O)[C@@H]3CSSC[C@H](NC(=O)[C@H](C)NC(=O)[C@H](Cc4ccc(O)cc4)NC(=O)[C@H](CC(N)=O)NC(=O)[C@H](C)NC(=O)[C@H](CSSC[C@H](NC(=O)CN)C(=O)N[C@@H](CCCCN)C(=O)NCC(=O)N[C@@H](Cc4ccccc4)C(=O)NCC(=O)N[C@@H](CC(=O)O)C(=O)N[C@@H](CO)C(=O)N3)NC2=O)C(=O)N[C@@H](CO)C(=O)N[C@@H](CO)C(=O)N[C@@H](CCCCN)C(=O)N[C@@H](Cc2c[nH]cn2)C(=O)N[C@@H](CCCCN)C(=O)N[C@@H](Cc2c[nH]c3ccccc23)C(=O)N1)C(C)C)C(N)=O [P18A] (H-GCKGFGDSCTPGKNECCANYACSSKHKWCKVYL-NH2; disulfide 2-17, 9-22, 16-29)
- IC50 (rKv4.2; SEM): 140 ± 43 nM

Compound: CC(C)C[C@H](NC(=O)[C@H](Cc1ccc(O)cc1)NC(=O)[C@@H](NC(=O)[C@H](CCCCN)NC(=O)[C@@H]1CSSC[C@@H]2NC(=O)[C@H](CCC(=O)O)NC(=O)[C@H](CC(N)=O)NC(=O)[C@H](CCCCN)NC(=O)CNC(=O)[C@@H]3CCCN3C(=O)[C@H]([C@@H](C)O)NC(=O)[C@@H]3CSSC[C@H](NC(=O)[C@H](C)NC(=O)[C@H](Cc4ccc(O)cc4)NC(=O)[C@H](CC(N)=O)NC(=O)[C@H](CCCCN)NC(=O)[C@H](CSSC[C@H](NC(=O)CN)C(=O)N[C@@H](CCCCN)C(=O)NCC(=O)N[C@@H](Cc4ccccc4)C(=O)NCC(=O)N[C@@H](CC(=O)O)C(=O)N[C@@H](CO)C(=O)N3)NC2=O)C(=O)N[C@@H](CO)C(=O)N[C@@H](CO)C(=O)N[C@@H](CCCCN)C(=O)N[C@@H](Cc2c[nH]cn2)C(=O)N[C@@H](CCCCN)C(=O)N[C@@H](Cc2c[nH]c3ccccc23)C(=O)N1)C(C)C)C(N)=O [P18K] (H-GCKGFGDSCTPGKNECCKNYACSSKHKWCKVYL-NH2; disulfide 2-17, 9-22, 16-29)
- IC50 (rKv4.2; SEM): 167 ± 117 nM

Compound: CC(C)C[C@H](NC(=O)[C@H](Cc1ccc(O)cc1)NC(=O)[C@@H](NC(=O)[C@H](CCCCN)NC(=O)[C@@H]1CSSC[C@@H]2NC(=O)[C@H](CCC(=O)O)NC(=O)[C@H](CC(N)=O)NC(=O)[C@H](CCCCN)NC(=O)CNC(=O)[C@@H]3CCCN3C(=O)[C@H](CCC(=O)O)NC(=O)[C@@H]3CSSC[C@H](NC(=O)[C@H](C)NC(=O)[C@H](Cc4ccc(O)cc4)NC(=O)[C@H](CC(N)=O)NC(=O)[C@@H]4CCCN4C(=O)[C@H](CSSC[C@H](NC(=O)CN)C(=O)N[C@@H](CCCCN)C(=O)NCC(=O)N[C@@H](Cc4ccccc4)C(=O)NCC(=O)N[C@@H](CC(=O)O)C(=O)N[C@@H](CO)C(=O)N3)NC2=O)C(=O)N[C@@H](CO)C(=O)N[C@@H](CO)C(=O)N[C@@H](CCCCN)C(=O)N[C@@H](Cc2c[nH]cn2)C(=O)N[C@@H](CCCCN)C(=O)N[C@@H](Cc2c[nH]c3ccccc23)C(=O)N1)C(C)C)C(N)=O [T10E] (H-GCKGFGDSCEPGKNECCPNYACSSKHKWCKVYL-NH2; disulfide 2-17, 9-22, 16-29)
- IC50 (rKv4.2; SEM): 452 ± 221 nM

Compound: CC(C)C[C@H](NC(=O)[C@H](Cc1ccc(O)cc1)NC(=O)[C@@H](NC(=O)[C@H](CCCCN)NC(=O)[C@@H]1CSSC[C@@H]2NC(=O)[C@H](CCC(=O)O)NC(=O)[C@H](CC(N)=O)NC(=O)[C@H](CCCCN)NC(=O)CNC(=O)[C@@H]3CCCN3C(=O)[C@H]([C@@H](C)O)NC(=O)[C@@H]3CSSC[C@H](NC(=O)[C@H](C)NC(=O)[C@H](Cc4ccc(O)cc4)NC(=O)[C@H](CC(N)=O)NC(=O)[C@@H]4CCCN4C(=O)[C@H](CSSC[C@H](NC(=O)CN)C(=O)N[C@@H](CCCCN)C(=O)NCC(=O)N[C@@H](Cc4ccccc4)C(=O)NCC(=O)N[C@@H](CC(=O)O)C(=O)N[C@@H](CO)C(=O)N3)NC2=O)C(=O)N[C@@H](CO)C(=O)N[C@@H](CO)C(=O)N[C@@H](CCCCN)C(=O)N[C@@H](Cc2c[nH]cn2)C(=O)N[C@@H](CCCCN)C(=O)N[C@@H](C)C(=O)N1)C(C)C)C(N)=O [W28A] (H-GCKGFGDSCTPGKNECCPNYACSSKHKACKVYL-NH2; disulfide 2-17, 9-22, 16-29; N-terminus and C-terminus assumed)
- inhibition of rKv4.2, in words (rKv4.2; analogue compared with its parent toxin): dramatically decreased inhibition

Reference: article PMC11558128 (Advanced Science, 2024)
